Results reported in patent US10308629B2, “1H-pyrrol-3-amines” (BAYER PHARMA AKTIENGESELLSCHAFT, priority 2015, dated 2019).

Biological target: (recombinant) catalytic domain of human Bub1 (amino acids 704-1085) (Homo sapiens (Human), UniProt O43683)
Test: Bub1 kinase assay (TR-FRET)
Format: biochemical
Settings: ATP 10 μM, peptide substrate 1 μM, 60 min at 22° C., read-out: Inhibition of Bub1 kinase IC50
From the text: Bub1-inhibitory activities of compounds described in the present invention were quantified using a time-resolved fluorescence energy transfer (TR-FRET) kinase assay which measures phosphorylation of the synthetic peptide Biotin-Ahx-VLLPKKSFAEPG (SEQ ID No. 1) (C-terminus in amide form), purchased from e.g. Biosyntan (Berlin, Germany) by the (recombinant) catalytic domain of human Bub1 (amino acids 704-1085), expressed in Hi5 insect cells with an N-terminal His6-tag and purified by affinity-(Ni-NTA) and size exclusion chromatography.
In a typical assay 11 different concentrations of each compound (0.1 nM, 0.33 nM, 1.1 nM, 3.8 nM, 13 nM, 44 nM, 0.15 μM, 0.51 μM, 1.7 μM, 5.9 μM and 20 μM) were tested in duplicate within the same microtiter plate. To this end, 100-fold concentrated compound solutions (in DMSO) were previously prepared by serial dilution (1:3.4) of 2 mM stocks in a clear low volume 384-well source microtiter plate (Greiner Bio-One, Frickenhausen, Germany), from which 50 nl of compounds were transferred into a black low volume test microtiter plate from the same supplier. Subsequently, 2 μL of Bub1 (the final concentration of Bub1 was adjusted depending on the activity of the enzyme lot in order to be within the linear dynamic range of the assay: typically ˜200 ng/mL were used) in aqueous assay buffer [50 mM Tris/HCl pH 7.5, 10 mM magnesium chloride (MgCl2), 200 mM potassium chloride (KCl), 1.0 mM dithiothreitol (DTT), 0.1 mM sodium ortho-vanadate, 1% (v/v) glycerol, 0.01% (w/v) bovine serum albumine (BSA), 0.005% (v/v) Trition X-100 (Sigma), 1× Complete EDTA-free protease inhibitor mixture (Roche)] were added to the compounds in the test plate and the mixture was incubated for 15 min at 22° C. to allow pre-equilibration of the putative enzyme-inhibitor complexes before the start of the kinase reaction, which was initiated by the addition of 3 μL 1.67-fold concentrated solution (in assay buffer) of adenosine-tri-phosphate (ATP, 10 μM final concentration) and peptide substrate (1 μM final concentration). The resulting mixture (5 μL final volume) was incubated at 22° C. during 60 min. and the reaction w as stopped by the addition of 5 μL of an aqueous EDTA-solution (50 mM EDTA, in 100 mM HEPES pH 7.5 and 0.2% (w/v) bovine serum albumin) which also contained the TR-FRET detection reagents (0.2 μM streptavidin-XL665 [Cisbio Bioassays, Codolet, France] and 1 nM anti-phosho-Serine antibody [Merck Millipore, cat. #35-002] and 0.4 nM LANCE EU-W1024 labeled anti-mouse IgG antibody [Perkin-Elmer, product no. AD0077, alternatively a Terbium-cryptate-labeled anti-mouse IgG antibody from Cisbio Bioassays can be used]). The stopped reaction mixture was further incubated 1 h at 22° C. in order to allow the formation of complexes between peptides and detection reagents. Subsequently, the amount of product was evaluated by measurement of the resonance energy transfer from the Eu-chelate-antibody complex recognizing the Phosphoserine residue to the streptavidin-XL665 bound to the biotin moiety of the peptide. To this end, the fluorescence emissions at 620 nm and 665 nm after excitation at 330-350 nm were measured in a TR-FRET plate reader, e.g. a Rubystar or Pherastar (both from BMG Labtechnologies, Offenburg, Germany) or a Viewlux (Perkin-Elmer) and the ratio of the emissions (665 nm/622 nm) was taken as indicator for the amount of phosphorylated substrate. The data were normalised using two sets of control wells for high−(=enzyme reaction without inhibitor=0%=Minimum inhibition) and low−(=all assay components without enzyme=100%=Maximum inhibition) Bub1 activity. IC50 values were calculated by fitting the normalized inhibition data to a 4-parameter logistic equation (Minimum, Maximum, IC50, Hill; Y=Max+(Min−Max)/(1+(X/IC50)Hill)).

Sequence of (recombinant) catalytic domain of human Bub1 (amino acids 704-1085) (O43683 704-1085): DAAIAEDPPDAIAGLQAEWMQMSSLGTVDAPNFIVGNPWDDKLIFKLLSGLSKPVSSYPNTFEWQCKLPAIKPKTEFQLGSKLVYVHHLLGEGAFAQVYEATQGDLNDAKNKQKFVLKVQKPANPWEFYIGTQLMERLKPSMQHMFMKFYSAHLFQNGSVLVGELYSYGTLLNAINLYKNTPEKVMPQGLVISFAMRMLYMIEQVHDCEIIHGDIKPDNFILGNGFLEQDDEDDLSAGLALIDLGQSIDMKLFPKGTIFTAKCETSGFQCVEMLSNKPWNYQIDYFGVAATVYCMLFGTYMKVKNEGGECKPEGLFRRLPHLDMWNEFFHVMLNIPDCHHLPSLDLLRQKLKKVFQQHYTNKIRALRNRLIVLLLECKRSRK

First: CC1(C(=O)Nc2cc(-c3[nH]c4c(c3Nc3ccccc3)C(=O)[C@@H]3C[C@]3(C)C4=O)ccn2)CC1 (relative stereo) [Example 33, N-{4-[rel-(4aR,5aS)-3-Anilino-5a-methyl-4,6-dioxo-1,4,4a,5,5a,6-hexahydrocyclopropa[f]indol-2-yl]pyridin-2-yl}-1-methylcyclopropanecarboxamide]
Second: Cn1ccc(C(=O)Nc2cc(-c3[nH]c4c(c3Nc3ccccc3)C(=O)[C@H]3C[C@@]3(C)C4=O)ccn2)n1 (relative stereo) [Example 34, 1-Methyl-N-4-[rel-(4aS,5aR)-5a-methyl-4,6-dioxo-3-(phenylamino)-1,4,4a,5,5a,6-hexahydrocyclopropa[f]indol-2-yl]pyridin-2-yl-1H-pyrazole-3-carboxamide]
The IC50 of the first is 3.1-fold higher: 0.11 µM for the first, 0.035 µM for the second.

Compared with `COc1cc(C(=O)Nc2cc(-c3[nH]c4c(c3Nc3ccccc3)C(=O)[C@H]3C[C@@]3(C)C4=O)ccn2)ccc1F` (relative stereo) [Example 35, 4-Fluoro-3-methoxy-N-4-[rel-(4aS,5aR)-5a-methyl-4,6-dioxo-3-(phenylamino)-1,4,4a,5,5a,6-hexahydrocyclopropa[f]indol-2-yl]pyridin-2-ylbenzamide], `O=c1ccccc2[nH]c(-c3ccncc3)c(Nc3ccccc3)c12` [Example 21, 3-(Phenylamino)-2-(pyridin-4-yl)cyclohepta[b]pyrrol-4(1H)-one] is 8.9-fold lower in IC50: 0.071 µM for the first, 0.008 µM for the second.

First: O=C1CCCCc2[nH]c(-c3ccncc3)c(Nc3ccccc3)c21 [Example 22, 3-(Phenylamino)-2-(pyridin-4-yl)-5,6,7,8-tetrahydrocyclohepta[b]pyrrol-4(1H)-one]
Second: Cc1ccc(=O)c2c(Nc3ccccc3)c(-c3ccnc(N)c3)[nH]c2c1 [Example 23, 2-(2-Aminopyridin-4-yl)-7-methyl-3-(phenylamino)cyclohepta[b]pyrrol-4(1H)-one]
The IC50 of the first is 4.3-fold lower: 0.006 µM for the first, 0.026 µM for the second.

“(1S,2S)-2-Fluoro-N-4-[[(4aR,5aR) or (4aS,5aS)]-5a-methyl-4-oxo-3-(phenylamino)-1,4,4a,5,5a,6-hexahydrocyclopropa[f]indol-2-yl]pyridin-2-ylcyclopropanecarboxamide [Example 37]” and “(1S,2S)-2-Fluoro-N-4-[[(4aS,5aS) or (4aR,5aR)]-5a-methyl-4-oxo-3-(phenylamino)-1,4,4a,5,5a,6-hexahydrocyclopropa[f]indol-2-yl]pyridin-2-ylcyclopropanecarboxamide [Example 36]” are within 1.5-fold of each other in IC50: 0.011 µM for the first, 0.016 µM for the second.

Going from “(4aR,5aR or 4aS,5aS)-3-(Phenylamino)-2-(pyridin-4-yl)-4a,5,5a,6-tetrahydrocyclopropa[f]indol-4(1H)-one [Example 13]” to “(4aR,5aR or 4aS,5aS)-5a-Methyl-3-(phenylamino)-2-(pyridin-4-yl)-4a,5,5a,6-tetrahydrocyclopropa[f]indol-4(1H)-one [Example 17]”, the IC50 falls from 0.019 µM to 0.005 µM (3.8-fold).

First: (4aS,5aS or 4aR,5aR)-3-(Phenylamino)-2-(pyridin-4-yl)-4a,5,5a,6-tetrahydrocyclopropa[f]indol-4(1H)-one [Example 14]
Second: (4aS,5aS or 4aR,5aR)-5a-Methyl-3-(phenylamino)-2-(pyridin-4-yl)-4a,5,5a,6-tetrahydrocyclopropa[f]indol-4(1H)-one [Example 18]
The IC50 of the first is 1.5-fold lower: 0.004 µM for the first, 0.006 µM for the second.

Going from “(5R,7S or 5S,7R)-2-(2-Aminopyridin-4-yl)-6,6-dimethyl-3-(phenylamino)-1,5,6,7-tetrahydro-4H-5,7-methanoindol-4-one [Example 3]” to “(5S,7R or 5R,7S)-2-(2-Aminopyridin-4-yl)-6,6-dimethyl-3-(phenylamino)-1,5,6,7-tetrahydro-4H-5,7-methanoindol-4-one [Example 4]”, the IC50 rises from 0.648 µM to 2.93 µM (4.5-fold).

Going from “N-4-[(4aR,5aR or 4aS,5aS)-5a-Methyl-4-oxo-3-(phenylamino)-1,4,4a,5,5a,6-hexahydrocyclopropa[f]indol-2-yl]pyridin-2-ylacetamide [Example 19]” to “N-4-[(4aS,5aS or 4aR,5aR)-5a-Methyl-4-oxo-3-(phenylamino)-1,4,4a,5,5a,6-hexahydrocyclopropa[f]indol-2-yl]pyridin-2-ylacetamide [Example 20]”, the IC50 rises from 0.008 µM to 0.036 µM (4.5-fold).

Going from “N-4-[[(4aR,5aR) or (4aS,5aS)]-5a-Methyl-4-oxo-3-(phenylamino)-1,4,4a,5,5a,6-hexahydrocyclopropa[f]indol-2-yl]pyridin-2-yl-1H-pyrazole-3-carboxamide [Example 45]” to “N-4-[[(4aS,5aS) or (4aR,5aR)]-5a-Methyl-4-oxo-3-(phenylamino)-1,4,4a,5,5a,6-hexahydrocyclopropa[f]indol-2-yl]pyridin-2-yl-1H-pyrazole-3-carboxamide [Example 44]”, the IC50 falls from 0.018 µM to 0.005 µM (3.6-fold).

First: N-4-[[(7R) or (7S)]-7-Methyl-4-oxo-3-(phenylamino)-1,4,5,6,7,8-hexahydrocyclohepta[b]pyrrol-2-yl]pyridin-2-ylacetamide [Example 39]
Second: N-4-[[(7S) or (7R)]-7-Methyl-4-oxo-3-(phenylamino)-1,4,5,6,7,8-hexahydrocyclohepta[b]pyrrol-2-yl]pyridin-2-ylacetamide [Example 38]
The IC50 of the first is 5.4-fold lower: 0.005 µM for the first, 0.027 µM for the second. The first is the more potent here.

Compared with “N-{4-[[(4aR,5aR) or (4aS,5aS)]-3-Anilino-5a-methyl-4-oxo-1,4,4a,5,5a,6-hexahydrocyclopropa[f]indol-2-yl]pyridin-2-yl}-2,6-difluorobenzamide [Example 46]”, “N-{4-[[(4aR,5aR) or (4aS,5aS)]-3-anilino-5a-methyl-4-oxo-1,4,4a,5,5a,6-hexahydrocyclopropa[f]indol-2-yl]pyridin-2-yl}-3-fluoro-4-methoxybenzamide [Example 50]” is 3.2-fold higher in IC50: 0.004 µM for the first, 0.013 µM for the second.

Going from “N-{4-[[(4aS,5aS) or (4aR,5aR)]-3-anilino-5a-methyl-4-oxo-1,4,4a,5,5a,6-hexahydrocyclopropa[f]indol-2-yl]pyridin-2-yl}-2,6-difluorobenzamide [Example 47]” to “N-{4-[[(4aS,5aS) or (4aR,5aR)]-3-anilino-5a-methyl-4-oxo-1,4,4a,5,5a,6-hexahydrocyclopropa[f]indol-2-yl]pyridin-2-yl}-3-fluoro-4-methoxybenzamide [Example 51]”, the IC50 rises from 0.007 µM to 0.012 µM (1.7-fold). The first is the more potent here.
